# Assay results from US20040152784A1, “Pharmaceutical composition and method for treatment of a urea cycle deficiency or sickle-cell anaemia” (Special Products Limited, priority 2002, published 2004).
# “Also recorded” adds a separate entry of the source. Where two headings read alike, the source gives them in different places. Residues, ends and D or L forms follow the SMILES beside them.
# Key:
# [1] = cited from earlier work
# [2] = cited from earlier work; for Stability / hydrolysis in water: in words
# Solubility in water = format: physicochemical; settings: in water at 10° C.; read-out: maximum solubility of sodium 4-phenylbutyrate
# [3] = test system: bacterial and fungal growth; assay: Prevention of bacterial and fungal growth in the concentrated flavored solution without preservative; format: cell-based; settings: 250 mg/ml, no preservative
# Excerpt: This may not apply at much lower concentrations. Therefore, the concentrated solution should be diluted by the patient's carer or guardian immediately before it is consumed by the patient. Thus the patient's carer or guardian should not prepare a jug of ready-to-use liquid to last a week or so.
# [4] = Bulk density and powder properties; format: physicochemical
# Description: A pharmaceutical composition made by either of such methods typically has a bulk density of about 52.6 g/100 ml. […] A 25 g quantity of the granulated pharmaceutical composition will thus approximately half fill a 100 ml bottle.
compound,measurement,setting,value
O=C1NS(=O)(=O)c2ccccc21.[Na] [Sodium Saccharine],Solubility in Water,[1]; in words,Very soluble
CC1=CC(=O)NS(=O)(=O)O1 [Potassium acesulfame],Stability / hydrolysis in water,[2],Stable in water
same,Dissolution,[1]; in words,Fast dissolution
same,Solubility in Water,[1]; in words,Very soluble
O=S(=O)([O-])NC1CCCCC1.[Na+] [Sodium cyclamate],Solubility in Water,[1]; in words,Soluble
O=C([O-])CCCc1ccccc1.[Na+] [Sodium 4-phenylbutyrate],solubility,Solubility in water,250 mg/mL
same,prevention of bacterial and fungal growth,[3],prevents such growth
same,bulk density,[4],about 26.4 g/100 ml
same,hygroscopicity,[4],somewhat hygroscopic
OC[C@@H](O)[C@@H](O[C@H]1O[C@H](CO)[C@@H](O)[C@H](O)[C@H]1O)[C@H](O)[C@@H](O)CO [Maltitol],Solubility in Water,[1]; in words,Very soluble
COC(=O)[C@H](Cc1ccccc1)NC(=O)[C@@H](N)CC(=O)O [Aspartame] (H-Asp-Phe-OMe),hydrolyses significantly to phenylalanine (non-sweet) within,[2]; in water,≤ 6 months
same,Stability / hydrolysis in water,[2],hydrolyses to phenylalanine within a few weeks; also recorded: Hydrolyses in water
same,solubility,[1],10 mg/mL
